# Measurements as given in paper PMC10221837, “Alanine Substitution to Determine the Effect of LR5 and YR6 Rice Peptide Structure on Antioxidant and Anti-Inflammatory Activity” (Nutrients, 2023).
# Ends that are not written are not given here.
# Test system: RAW264.7 cells
# Assay: MTT proliferation and cytotoxicity of peptides (stimulating index)
# Assay type: cell-based, mouse
# Conditions: RAW264.7, MTT, 24 h, across 12.5, 25, 50 and 100 μg/mL peptide
# Method: The MTT colorimetry method was used to determine the effects of original rice peptides and replacement peptides on RAW264.7 cell proliferation, and the toxic effects of these peptides on the cells. RAW264.7 cells were cultured in DMEM high glucose medium containing 10% (v/v) fetal bovine serum (FBS) and 1% (v/v) of penicillin–streptomycin solution (10,000 U/mL of penicillin and 10,000 U/mL of streptomycin). The cells were cultured at 37 °C in a humidified incubator (Boxun Co., Ltd., Shanghai, China) with 5% (v/v) CO2, with sub-culturing every three days.
# Briefly, pre-cultured, logarithmic phase cells were inoculated into 96-well plates (with six double wells for each group), at a cell density of 6.0 × 10^4 cells/mL. Then, 200 μL of cell suspension was added into the wells and incubated for 6 h to make the cells adhere to the well wall. After that, different concentrations of samples (12.5, 25, 50, and 100 μg/mL) were added to four of the six corresponding wells for each group. Sterile water and immunoglobulin G (IgG) were used as the blank and positive control groups, respectively. The samples were subsequently incubated in a humidified incubator with 5% (v/v) CO2 at 37 °C for 24 h, and then 20 μL of MTT solution (5 mg/mL) was added to each well and incubated for a further 4 h. Next, the culture medium supernatant was gently removed from the wells, and 150 μL of dimethyl sulfoxide (DMSO) solution was added into the wells, which were shaken for 10 min at room temperature to ensure that the […] was fully dissolved. Then, the solution was immediately detected at 490 nm. The cytotoxicity was evaluated based on the following stimulating index (SI) value Formula (3):(3) SI=OD1/OD0 where OD1 is the absorbance value at 490 nm of the sample group or the IgG group, and OD0 is the absorbance value at 490 nm of the blank group.
row,Substance,"SI value (stimulating index, OD sample/OD blank)"
1,AGLYPR [AGR6],greater than 1.0
2,AHKFR [AR5],greater than 1.0
3,LHKAR [LAR5],greater than 1.0
4,LHKFR [LR5],greater than 1.0
5,YGAYPR [YAR6],greater than 1.0
6,YGLAPR [YLR6],greater than 1.0
7,YGLYAR [YGR6],greater than 1.0
8,YGLYPR [YR6],greater than 1.0
